According to ChEMBL document CHEMBL4229562, “Introduction of a Methyl Group Curbs Metabolism of Pyrido[3,4- d]pyrimidine Monopolar Spindle 1 (MPS1) Inhibitors and Enables the Discovery of the Phase 1 Clinical Candidate N2-(2-Ethoxy-4-(4-methyl-4 H-1,2,4-triazol-3-yl)phenyl)-6-methyl- N8-neopentylpyrido[3,4- d]pyrimidine-2,8-diamine …” (J Med Chem, 2018):
Values after ≈ are worked out from the molar mass of the structure shown.

Columns and labels:
[1] = Intrinsic clearance in CD1 mouse liver microsomes assessed per mg protein at 1 uM preincubated for 10 mins followed NADPH/UDP-glucuronic acid addition and measured after 30 mins by LC-MS/MS analysis; format: ADME, microsome; conditions: 0.5 h
[2] = Intrinsic clearance in human liver microsomes assessed per mg protein at 1 uM preincubated for 10 mins followed NADPH/UDP-glucuronic acid addition and measured after 30 mins by LC-MS/MS analysis; format: ADME, microsome; conditions: 0.5 h
[3] = Solubility of the compound in PBS buffer at pH 7.4 by HPLC analysis; format: physicochemical
[4] = Lipophilicity, log P of the compound; format: physicochemical; conditions: octanol/water
[5] = target: T1, Dual specificity protein kinase TTK (Homo sapiens, UniProt P33981)
T1 sequence (P33981 whole entry): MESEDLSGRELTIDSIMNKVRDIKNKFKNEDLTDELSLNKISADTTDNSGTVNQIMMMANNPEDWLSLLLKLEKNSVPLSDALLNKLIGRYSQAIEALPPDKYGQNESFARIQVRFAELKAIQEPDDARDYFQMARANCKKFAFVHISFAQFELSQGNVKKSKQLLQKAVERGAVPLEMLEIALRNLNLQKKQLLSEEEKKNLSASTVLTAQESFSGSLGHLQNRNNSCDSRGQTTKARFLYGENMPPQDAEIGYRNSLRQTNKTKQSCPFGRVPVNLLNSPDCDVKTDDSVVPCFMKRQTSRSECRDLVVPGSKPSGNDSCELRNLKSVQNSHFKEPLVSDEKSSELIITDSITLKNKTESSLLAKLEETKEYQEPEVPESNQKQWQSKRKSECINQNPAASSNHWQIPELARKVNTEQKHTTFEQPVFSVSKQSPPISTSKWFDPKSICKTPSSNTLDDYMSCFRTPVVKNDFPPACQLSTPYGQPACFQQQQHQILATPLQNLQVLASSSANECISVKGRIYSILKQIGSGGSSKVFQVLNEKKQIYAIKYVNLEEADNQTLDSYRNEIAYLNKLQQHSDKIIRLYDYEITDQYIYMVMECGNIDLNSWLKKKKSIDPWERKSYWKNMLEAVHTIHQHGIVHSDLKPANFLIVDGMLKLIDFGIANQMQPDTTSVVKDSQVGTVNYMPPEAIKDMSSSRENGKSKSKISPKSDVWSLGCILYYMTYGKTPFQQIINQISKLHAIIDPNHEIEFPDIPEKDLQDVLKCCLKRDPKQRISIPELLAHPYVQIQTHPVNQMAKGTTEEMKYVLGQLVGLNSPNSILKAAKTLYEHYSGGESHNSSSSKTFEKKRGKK
Description: Inhibition of full length human N-terminal 6xHis-tagged MPS1 expressed in baculovirus expression system using 5FAM-H236 peptide as substrate after 60 to 90 mins by caliper assay

[6] = target: CDK2/Cyclin A2 (Homo sapiens, UniProt P24941)
[7] = target: T1, Dual specificity protein kinase TTK; remark: listed apart in the source
Description: Inhibition of MPS1 autophosphorylation at Thr33/Ser37 in human HCT116 cells after 2 hrs by MSD assay

[8] = tested on: Mus musculus; assay: Half life in mouse at 5 mg/kg, iv by ESI-LCMS/MS analysis; format: ADME, organism-based; conditions: in vivo
[9] = tested on: Rattus norvegicus; assay: Half life in rat at 5 mg/kg, iv by ESI-LCMS/MS analysis; format: ADME, organism-based; conditions: in vivo
[10] = Clearance in mouse at 5 mg/kg, iv by ESI-LCMS/MS analysis; format: ADME, organism-based; conditions: in vivo
[11] = Clearance in rat at 5 mg/kg, iv by ESI-LCMS/MS analysis; format: ADME, organism-based; conditions: in vivo
[12] = Cmax in rat at 5 mg/kg, po by ESI-LCMS/MS analysis; format: ADME, organism-based; set-up: dose 5 mg/kg, route oral; conditions: in vivo
[13] = Cmax in mouse at 5 mg/kg, po by ESI-LCMS/MS analysis; format: ADME, organism-based; set-up: dose 5 mg/kg, route oral; conditions: in vivo
[14] = AUClast in mouse at 5 mg/kg, po measured after 6 hrs by ESI-LCMS/MS analysis; format: ADME, organism-based; conditions: in vivo
[15] = AUClast in rat at 5 mg/kg, po measured after 24 hrs by ESI-LCMS/MS analysis; format: ADME, organism-based; conditions: in vivo
[16] = Protein binding in mouse plasma; format: ADME, cell-free
[17] = Volume of distribution at steady state in mouse at 5 mg/kg, iv by ESI-LCMS/MS analysis; format: ADME, organism-based; conditions: in vivo, read-out: Vdss
[18] = Volume of distribution at steady state in rat at 5 mg/kg, iv by ESI-LCMS/MS analysis; format: ADME, organism-based; conditions: in vivo, read-out: Vdss
[19] = tested on: Mus musculus; assay: Oral bioavailability in mouse at 5 mg/kg by ESI-LCMS/MS analysis; format: ADME, organism-based; conditions: in vivo
[20] = tested on: Rattus norvegicus; assay: Oral bioavailability in rat at 5 mg/kg by ESI-LCMS/MS analysis; format: ADME, organism-based; conditions: in vivo
[21] = tested on: Canis familiaris; assay: Half life in dog at 1 mg/kg, iv by ESI-LCMS/MS analysis; format: ADME, organism-based, Canis lupus familiaris; conditions: in vivo
[22] = Cmax in dog at 5 mg/kg, po by ESI-LCMS/MS analysis; format: ADME, organism-based, Canis lupus familiaris; set-up: dose 5 mg/kg, route oral; conditions: in vivo
[23] = AUClast in dog at 5 mg/kg, po measured after 48 hrs by ESI-LCMS/MS analysis; format: ADME, organism-based, Canis lupus familiaris; conditions: in vivo
[24] = tested on: Canis familiaris; assay: Volume of distribution at steady state in dog at 1 mg/kg, iv by ESI-LCMS/MS analysis; format: ADME, organism-based, Canis lupus familiaris; conditions: in vivo
[25] = Oral bioavailability in dog at 5 mg/kg by ESI-LCMS/MS analysis; format: ADME, organism-based, Canis lupus familiaris; conditions: in vivo
[26] = AUClast in rat at 5 mg/kg, po measured after 6 hrs by ESI-LCMS/MS analysis; format: ADME, organism-based; conditions: in vivo
[27] = Plasma concentration in doxycycline-inducible human DLD-1 cell xenografted mouse model at 25 mg/kg, po administered as single dose and measured after 24 hrs post dose by LC/MS analysis; format: ADME, organism-based

| CLH [1] [µL/min/mg] | CLH [2] [µL/min/mg] | solubility [3] [µM] | logP [4] | IC50 [5] [nM] | Ki [5] [nM] | IC50 [6] [nM] | Ki [6] [nM] | IC50 [7] [nM] | SMILES | further results |
| --- | --- | --- | --- | --- | --- | --- | --- | --- | --- | --- |
| 28.8 | 28.8 | 1.7 (≈ 0.78 µg/mL) | 4.4 | 19 | 0.19 | 250 | 130 | 240 | COc1cc(-c2nnc3n2CCC3)ccc1Nc1ncc2cc(C)nc(NCC(C)(C)C)c2n1 | – |
| 34.5 | 28.2 | – | 4.55 | 9.5 | 0.094 | 1400 | 720 | 170 | COc1cc(-c2cnc(C)n2C)ccc1Nc1ncc2cc(C)nc(NCC(C)(C)C)c2n1 | – |
| 27.7 | 23 | 77.6 (≈ 40.2 µg/mL) | 4.75 | 12 | 0.12 | 360 | 180 | 230 | CCOc1cc(-c2nnc(CCN(C)C)n2C)ccc1Nc1ncc2cc(C)nc(NCC(C)(C)C)c2n1 | – |
| 44.3 | 25.2 | 31.5 (≈ 14 µg/mL) | 3.85 | 8.9 | 0.088 | 1600 | 810 | 37 | CCOc1cc(-c2nncn2C)ccc1Nc1ncc2cc(C)nc(N3CC(C)(C)C3)c2n1 | t1/2 [8]: 1.58 h; t1/2 [9]: 3.03 h; clearance [10]: 16.3 mL/min/kg; clearance [11]: 7.35 mL/min/kg; Cmax [12]: 1420 nM; Cmax [13]: 2350 nM; AUC(0-t) at 6 h [14]: 8.11 µM·h; AUC(0-t) at 24 h [15]: 18.3 µM·h; PPB [16]: 99.28%; Vd [17]: 2.09 L/kg; Vd [18]: 1.88 L/kg; F [19]: 75%; F [20]: 72% |
| 92.5 | – | – | 4.27 | 8.5 | 0.084 | 86 | 43 | 44 | COc1cc(-c2cnc(C)n2C)ccc1Nc1ncc2ccnc(NCC(C)(C)C)c2n1 | – |
| – | – | – | – | – | – | – | – | – | CCOc1cc(-c2nncn2C)ccc1Nc1ncc2cc(C)nc(NCC(C)(C)C)c2n1.Cl.Cl | t1/2 [21]: 12 h; Cmax [22]: 7.77 µM; AUC(0-t) at 48 h [23]: 147 µM·h; Vdss [24]: 1.1 L/kg; bioavailability [25]: 100% |
| – | – | – | 4.42 | 79 | 0.78 | 3000 | 1500 | 95 | COc1cc(-c2cnn(C)c2C)ccc1Nc1ncc2ccnc(NCC(C)(C)C)c2n1 | – |
| – | – | – | 4.56 | 2500 | 24 | 2800 | 1400 | 230 | COc1cc(-c2cn(C)nc2C)ccc1Nc1ncc2ccnc(NCC(C)(C)C)c2n1 | – |
| – | – | – | 3.58 | 400 | 4 | 26000 | 13000 | 3800 | CCOc1cc(-c2nncn2C)ccc1Nc1ncc2cc(C)nc(N3CCC3(C)C)c2n1 | – |
| 32.9 | 9.4 | 56.2 (≈ 27.3 µg/mL) | 3.08 | 11 | 0.11 | 2500 | 1300 | 37 | CCOc1cc(-c2nncn2C)ccc1Nc1ncc2cc(C)nc(N3CC4(CCOCC4)C3)c2n1 | t1/2 [8]: 0.66 h; t1/2 [9]: 1.5 h; clearance [10]: 22.6 mL/min/kg; clearance [11]: 7.59 mL/min/kg; Cmax [12]: 1180 nM; Cmax [13]: 3080 nM; AUC(0-t) at 6 h [14]: 4.78 µM·h; AUC(0-t) at 6 h [26]: 5.16 µM·h; PPB [16]: 98.09%; Vd [17]: 1.21 L/kg; Vd [18]: 0.89 L/kg; F [19]: 63%; F [20]: 22%; concentration at 24 h [27]: < 10 nM |
